Data from paper PMC3179267 (Biochemistry, 2011).
Where a SMILES comes first, the peptide text is derived from it. Bridges are numbered along the chain shown (N, C = ends).

How the values were obtained:
[1] = tested on: trypsin; conditions: cited from earlier work
[2] = tested on: trypsin; experiment: Protease susceptibility assay; assay type: in vitro ADME; conditions: 80 μM peptide, pH 8.2, room temperature, up to 60 min, analytical HPLC

| SMILES | susceptibility to trypsin, literature [1] | susceptibility to trypsin [2] |
| --- | --- | --- |
| CC[C@H](C)[C@@H]1NC(=O)[C@H](CCC(=O)O)NC(=O)[C@@H]2CSSC[C@@H]3NC(=O)[C@H](Cc4ccc(O)cc4)NC(=O)[C@@H](NC(=O)[C@@H](NC(=O)[C@H](C)N)[C@@H](C)O)CSSC[C@@H](C(=O)N[C@@H](CCCNC(=N)N)C(=O)O)NC(=O)[C@H](CSSC[C@H](NC(=O)[C@H](CCCNC(=N)N)NC(=O)CNC(=O)[C@H]([C@@H](C)O)NC(=O)[C@H](CCCNC(=N)N)NC3=O)C(=O)N[C@@H](C)C(=O)N[C@@H]([C@@H](C)O)C(=O)N[C@@H](CCCNC(=N)N)C(=O)N[C@@H](CCC(=O)O)C(=O)N[C@@H](CO)C(=O)N[C@@H](CC(C)C)C(=O)N[C@@H](CO)C(=O)NCC(=O)N[C@@H](C(C)C)C(=O)N2)NC(=O)[C@H](CC(C)C)NC(=O)[C@H](CCCNC(=N)N)NC(=O)[C@H](Cc2ccc(O)cc2)NC(=O)[C@H](CC(C)C)NC(=O)[C@H](CCCNC(=N)N)NC(=O)CNC(=O)[C@H](CO)NC1=O [HD5ox] (H-ATCYCRTGRCATRESLSGVCEISGRLYRLCCR-OH; disulfide 3-31, 5-20, 10-30) | very poor substrate | not accepted as a substrate |
| CC[C@H](C)[C@H](NC(=O)[C@H](CCC(=O)O)NC(=O)[C@H](CS)NC(=O)[C@@H](NC(=O)CNC(=O)[C@H](CO)NC(=O)[C@H](CC(C)C)NC(=O)[C@H](CO)NC(=O)[C@H](CCC(=O)O)NC(=O)[C@H](CCCNC(=N)N)NC(=O)[C@@H](NC(=O)[C@H](C)NC(=O)[C@H](CS)NC(=O)[C@H](CCCNC(=N)N)NC(=O)CNC(=O)[C@@H](NC(=O)[C@H](CCCNC(=N)N)NC(=O)[C@H](CS)NC(=O)[C@H](Cc1ccc(O)cc1)NC(=O)[C@H](CS)NC(=O)[C@@H](NC(=O)[C@H](C)N)[C@@H](C)O)[C@@H](C)O)[C@@H](C)O)C(C)C)C(=O)N[C@@H](CO)C(=O)NCC(=O)N[C@@H](CCCNC(=N)N)C(=O)N[C@@H](CC(C)C)C(=O)N[C@@H](Cc1ccc(O)cc1)C(=O)N[C@@H](CCCNC(=N)N)C(=O)N[C@@H](CC(C)C)C(=O)N[C@@H](CS)C(=O)N[C@@H](CS)C(=O)N[C@@H](CCCNC(=N)N)C(=O)O [HD5red] (H-ATCYCRTGRCATRESLSGVCEISGRLYRLCCR-OH) | – | rapid proteolytic cleavage |
